Legend:
Type in all cases: cell-based
PPARγ = target: T1, PPARγ (Homo sapiens, UniProt P37231); experiment: Cross curve PPAR transactivation test (PPARγ); settings: HeLN cells stably transfected with ERE-βGlob-Luc-SV-Neo and Gal-hPPARγ; cross curves against reference agonist, Schild regression; read-out: PPAR gamma Kd app
T1 construct: It is a handle made for the test, not a second protein
T1 sequence (P37231 238-505 limits assumed): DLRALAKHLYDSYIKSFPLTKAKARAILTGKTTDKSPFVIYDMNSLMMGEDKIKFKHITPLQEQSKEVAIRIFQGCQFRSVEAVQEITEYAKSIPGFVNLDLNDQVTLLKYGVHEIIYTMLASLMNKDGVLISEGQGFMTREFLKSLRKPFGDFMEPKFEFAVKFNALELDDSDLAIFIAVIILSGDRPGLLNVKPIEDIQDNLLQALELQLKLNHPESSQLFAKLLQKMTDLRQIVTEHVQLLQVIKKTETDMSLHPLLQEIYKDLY
Method: (§1) The activation of receptors with an agonist (activator) in HeLN cells leads to the expression of a reporter gene, luciferase, which, in the presence of a substrate, generates light. The modulation of the receptors is measured as quantity of luminescence produced after incubating the cells in the presence of a reference agonist. The ligands will displace the agonist from its site. The measurement of the activity is performed by quantification of the light produced. This measurement makes it possible to determine the modulatory activity of the compounds according to the invention by determining the constant which is the affinity of the molecule for the receptor. Since this value can fluctuate according to the basal activity and the expression of the receptor, it is called apparent Kd (KdApp in nM).
(§2) To determine this constant, “cross curves” for the product to be tested against a reference agonist are produced in a 96-well plate: 10 concentrations of the test product plus a concentration 0 are placed in a line, and 7 concentrations of the agonist plus one concentration 0 are placed in a column. This is 88 measurement points for 1 product and 1 receptor. The 8 remaining wells are used for repeatability controls. […]
(§3) The various dilutions of the test products and of the reference ligand are added in an amount of 5 μl per well. […] After 5 minutes, the plates are read by the luminescence reader.

PPARδ = target: T2, PPARδ (Homo sapiens, UniProt Q03181); experiment: Cross curve PPAR transactivation test (PPARδ); settings: HeLN cells stably transfected with ERE-βGlob-Luc-SV-Neo and Gal-hPPARδ; cross curves against reference agonist, Schild regression; read-out: PPAR delta Kd app
T2 construct: It is a handle made for the test, not a second protein
T2 sequence (Q03181 211-441 limits assumed): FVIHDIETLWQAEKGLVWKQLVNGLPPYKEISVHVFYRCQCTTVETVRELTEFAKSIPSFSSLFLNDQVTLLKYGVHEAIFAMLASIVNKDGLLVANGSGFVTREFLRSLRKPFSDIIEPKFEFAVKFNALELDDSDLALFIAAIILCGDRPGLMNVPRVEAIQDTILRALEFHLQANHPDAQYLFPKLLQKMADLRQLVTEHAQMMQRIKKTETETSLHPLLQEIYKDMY
Method: as §1, §2, §3

PPARα = target: T3, PPARα (Homo sapiens, UniProt Q07869); experiment: Cross curve PPAR transactivation test (PPARα); settings: HeLN cells stably transfected with ERE-βGlob-Luc-SV-Neo and Gal-hPPARα; cross curves against reference agonist, Schild regression; read-out: PPAR alpha Kd app
T3 construct: It is a handle made for the test, not a second protein
T3 sequence (Q07869 200-468 limits assumed): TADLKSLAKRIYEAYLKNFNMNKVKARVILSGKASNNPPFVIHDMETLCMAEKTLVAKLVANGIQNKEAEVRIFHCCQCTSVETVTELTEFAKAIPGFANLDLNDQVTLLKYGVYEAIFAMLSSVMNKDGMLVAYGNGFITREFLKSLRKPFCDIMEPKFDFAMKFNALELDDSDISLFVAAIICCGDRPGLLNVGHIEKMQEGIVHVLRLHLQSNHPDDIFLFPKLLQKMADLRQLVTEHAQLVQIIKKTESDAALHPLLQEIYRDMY
Method: as §1, §2, §3

| Kd (PPARγ) [nM] | Kd (PPARδ) [nM] | Kd (PPARα) [nM] | Structure (SMILES) |
| --- | --- | --- | --- |
| 500 | 60 |  | CCCCCCCN(C(=O)NCCc1ccccc1)c1cccc(Sc2cccc(CC(=O)O)c2)c1 [Example 25b, {3-[3-(1-Heptyl-3-phenethylureido)phenylsulfanyl]phenyl}acetic acid] |
| 30 | 15 | 250 | O=C(O)Cc1cccc(Sc2ccc(N(CCc3ccccc3)C(=O)NC3CCCCC3)cc2)c1 [Example 18b, {3-[4-(3-Cyclohexyl-1-phenethylureido)phenylsulfanyl]phenyl}acetic acid] |

— patent US20060035969A1, “Novel modulators of the PPAR-type receptors and cosmetic/pharmaceutical compositions comprised thereof” (GALDERMA RESEARCH & DEVELOPMENT, S.N.C., priority 2003, published 2006)
